Data from patent US9346815B2, “5-chloro-2-difluoromethoxyphenyl pyrazolopyrimidine compounds, compositions and methods of use thereof” (Genentech, Inc., priority 2014, dated 2016).

Assays:
[1] = target: isolated recombinant JAK1 kinase domain (Homo sapiens (Human), UniProt P23458); assay: JAK1 enzyme assay (Caliper LabChip, peptide phosphorylation); assay type: biochemical; details: isolated recombinant JAK1 kinase domain, 25 μM ATP
[2] = target: isolated recombinant JAK2 kinase domain (Homo sapiens (Human), UniProt O60674); assay: JAK2 enzyme assay (Caliper LabChip, peptide phosphorylation); assay type: biochemical; details: 25 μM ATP
[3] = system: JAK1-dependent STAT6 phosphorylation downstream of IL-13 stimulation in TF-1 human erythroleukemia cells; assay: JAK1 pathway assay in TF-1 cells (IL-13-pSTAT6, MSD); assay type: cell-based; details: Homo sapiens, TF-1, TF-1 cells, read-out: IL13-pSTAT6 EC50_TF-1
Summary of the method: (§1)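 TF-1 cells are starved of GM-CSF overnight and run in serum-free medium, while BEAS-2B cells stay in complete growth medium. Inhibition of STAT6 phosphorylation is measured by MSD.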

[4] = system: JAK1-dependent STAT6 phosphorylation downstream of IL-13 stimulation in BEAS-2B human bronchial epithelial cells; assay: JAK1 pathway assay in BEAS-2B cells (IL-13-pSTAT6, MSD); assay type: cell-based; details: read-out: IL13-pSTAT6 EC50 (uM)_BEAS-2B
Summary of the method: as §1

[5] = Clearance assay: mouse intravenous (IV) clearance; assay type: in vivo; details: female BALB/c mice; for IV Mouse CL, % of liver blood flow: clearance as % of mouse liver blood flow; for clearance: mouse, read-out: IV Mouse CL
Excerpt: In certain instances high systemic clearance of a drug substance may be of benefit. For example, in the treatment of pulmonary diseases it may be beneficial to have high drug concentrations in the lung, with lower concentrations in the bloodstream or peripheral organs. In such cases, it may be advantageous to administer a drug substance with high systemic clearance via the inhaled delivery route. This approach may maximize pharmacologic activity of the drug substance in the lung while minimizing the possibility of on-target toxicity elsewhere in the body. The functional groups appended to the 5-chloro-2-difluoromethoxyphenyl pyrazolopyrimidine scaffold affect systemic clearance.
Female BALB/c mice were obtained from Charles River Labs (Hollister, Calif. USA). Twelve animals were given a single IV dose of 1 mg/kg of compounds via the tail vein. A representative dose solution was prepared as follows: the compound was dissolved in a mixture of 5% dimethylsulfoxide (DMSO), 35% polyethylene glycol (PEG 400), and 60% water (v/v/v), respectively, and administered at a dosing volume of 5 mL/kg. Mice weighed approximately 20-25 g at the start of the study. After intravenous administration of compounds, each animal was bled twice via retro-orbital and cardiac puncture. PK time points were collected at 2 min, 5 min, 15 min, 30 min, 1 hr, 2 hr, 4 hr, and 8 hr post-dose. Plasma samples were stored at approximately −80° C. until thawed for LC-MS/MS analysis. PK data analysis was performed on mean plasma concentration-time data and PK parameters were determined by non compartmental methods using WinNonlin® Enterprise, version 5.2.1 (Pharsight Corporation; Mountain View, Calif.).

[6] = plasma, single IV dose of 1 mg/kg via the tail vein

isolated recombinant JAK2 kinase domain, sequence (O60674 849-1124): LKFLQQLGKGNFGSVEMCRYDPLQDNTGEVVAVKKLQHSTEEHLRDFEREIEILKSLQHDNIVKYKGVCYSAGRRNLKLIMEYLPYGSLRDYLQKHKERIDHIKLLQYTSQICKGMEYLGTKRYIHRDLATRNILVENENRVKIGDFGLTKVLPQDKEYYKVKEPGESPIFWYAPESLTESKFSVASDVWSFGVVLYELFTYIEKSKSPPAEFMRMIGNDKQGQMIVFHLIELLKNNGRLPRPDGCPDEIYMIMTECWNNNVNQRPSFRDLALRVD
isolated recombinant JAK1 kinase domain, sequence (P23458 875-1153): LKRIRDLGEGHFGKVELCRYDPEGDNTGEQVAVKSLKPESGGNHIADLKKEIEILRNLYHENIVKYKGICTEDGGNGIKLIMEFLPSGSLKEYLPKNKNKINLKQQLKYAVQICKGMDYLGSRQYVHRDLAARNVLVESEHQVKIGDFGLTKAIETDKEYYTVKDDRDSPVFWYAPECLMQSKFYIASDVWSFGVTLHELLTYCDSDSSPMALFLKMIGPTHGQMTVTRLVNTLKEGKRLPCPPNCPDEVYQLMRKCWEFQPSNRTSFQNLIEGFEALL

| Ki [1] [nM] | Ki [2] [nM] | EC50 [3] [nM] | IV Mouse CL, % of liver blood flow ([5]; single IV dose of 1 mg/kg) [%] | clearance [5, 6] [mL/min/kg] | mouse IV clearance as % of mouse liver blood flow ([5]; single IV dose of 1 mg/kg) [%] | mouse intravenous (IV) clearance value ([5]; single IV dose of 1 mg/kg via the tail vein, plasma) [mL/min/kg] | Structure (SMILES) | EC50 [4] [µM] |
| --- | --- | --- | --- | --- | --- | --- | --- | --- |
| 0.79 | 0.81 | 16.7 | >100 | 216 | – | – | CN1C[C@@H]2CN(C(=O)Cn3cc(NC(=O)c4cnn5cccnc45)c(-c4cc(Cl)ccc4OC(F)F)n3)C[C@@H]2C1 [Example 3, Cis-pyrazolo[1,5-a]pyrimidine-3-carboxylic acid {3-(5-chloro-2-difluoromethoxyphenyl)1-[2-(5-methylhexahydropyrrolo[3,4-c]pyrrol-2-yl)-2-oxoethyl]-1H-pyrazol-4-yl}amide] | 0.0324 |
| 0.89 | – | 14.6 | >100 | 205 | – | – | CN(C)C1CCN(C(=O)Cn2cc(NC(=O)c3cnn4cccnc34)c(-c3cc(Cl)ccc3OC(F)F)n2)CC1 [Example 67, N-[3-[5-chloro-2-(difluoromethoxy)phenyl]-1-[2-[4-(dimethylamino)-1-piperidyl]-2-oxo-ethyl]pyrazol-4-yl]pyrazolo[1,5-a]pyrimidine-3-carboxamide] | 0.0715 |
| 0.24 | 0.63 | – | >100 | 133 | – | – | O=C(Nc1cn(CC(=O)N2CCC(O)CC2)nc1-c1cc(Cl)ccc1OC(F)F)c1cnn2cccnc12 [Example 278, N-[3-[5-chloro-2-(difluoromethoxy)phenyl]-1-[2-(4-hydroxy-1-piperidyl)-2-oxo-ethyl]pyrazol-4-yl]pyrazolo[1,5-a]pyrimidine-3-carboxamide] | 0.005 |
| 1.34 | 0.47 | 16.3 | – | – | – | – | CCOC(=O)[C@@H](N)CCn1cc(NC(=O)c2cnn3cccnc23)c(-c2cc(Cl)ccc2OC(F)F)n1 [Example 309, ethyl (2S)-2-amino-4-[3-[5-chloro-2-(difluoromethoxy)phenyl]-4-(pyrazolo[1,5-a]pyrimidine-3-carbonylamino)pyrazol-1-yl]butanoate] | 0.049 |
| 0.21 | 0.21 | – | 57 | 51 | – | – | O=C(Nc1cn(CCNCc2ccccc2)nc1-c1cc(Cl)ccc1OC(F)F)c1cnn2cccnc12 [Example 313, N-[1-[2-(benzylamino)ethyl]-3-[5-chloro-2-(difluoromethoxy)phenyl]-1H-pyrazol-4-yl]pyrazolo[1,5-a]pyrimidine-3-carboxamide] | 0.0218 |
| 0.25 | 0.51 | – | >100 | 93 | – | – | CSCCN1CCN(C(=O)Cn2cc(NC(=O)c3cnn4cccnc34)c(-c3cc(Cl)ccc3OC(F)F)n2)CC1 [Example 372, N-[3-[5-chloro-2-(difluoromethoxy)phenyl]-1-(2-[4-[2-(methylsulfanyl)ethyl]piperazin-1-yl]-2-oxoethyl)-1H-pyrazol-4-yl]pyrazolo[1,5-a]pyrimidine-3-carboxamide] | 0.0197 |
| – | – | – | – | – | 6 | 5.3 | CC(C)(O)Cn1cc(NC(=O)c2cnn3cccnc23)c(-c2cc(Cl)ccc2OC(F)F)n1 [i] | – |

Continued, compound first:

| Structure (SMILES) | Ki [1] [nM] | Ki [2] [nM] | EC50 [3] [nM] | IV Mouse CL, % of liver blood flow ([5]; single IV dose of 1 mg/kg) [%] | clearance [5, 6] [mL/min/kg] | mouse IV clearance as % of mouse liver blood flow ([5]; single IV dose of 1 mg/kg) [%] | mouse intravenous (IV) clearance value ([5]; single IV dose of 1 mg/kg via the tail vein, plasma) [mL/min/kg] | EC50 [4] [µM] |
| --- | --- | --- | --- | --- | --- | --- | --- | --- |
| Nc1nn2cccnc2c1C(=O)Nc1cn(C2CCNCC2)nc1-c1cc(Cl)ccc1OC(F)F [Example 2, 2-Amino-pyrazolo[1,5-a]pyrimidine-3-carboxylic acid [3-(5-chloro-2-difluoromethoxy-phenyl)-1-piperidin-4-yl-1H-pyrazol-4-yl]-amide] | 0.72 | 0.19 | 5.2 | >100 | 580 | – | – | 0.0195 |
| O=C(Nc1cn(CC(=O)N2C[C@H]3CN(CC(F)(F)F)C[C@H]3C2)nc1-c1cc(Cl)ccc1OC(F)F)c1cnn2cccnc12 [Example 59, N-[1-[2-[(3aR,6aS)-2-(2,2,2-trifluoroethyl)-1,3,3a,4,6,6a-hexahydropyrrolo[3,4-c]pyrrol-5-yl]-2-oxo-ethyl]-3-[5-chloro-2-(difluoromethoxy)phenyl]pyrazol-4-yl]pyrazolo[1,5-a]pyrimidine-3-carboxamide] | 0.5 | 0.8 | 3.7 | 43 | 39 | – | – | – |
| CN(CC(F)(F)F)C1CCN(c2nc(-c3cc(Cl)ccc3OC(F)F)c(NC(=O)c3cnn4cccnc34)s2)CC1 [Example 198, N-[4-[5-chloro-2-(difluoromethoxy)phenyl]-2-[4-[methyl(2,2,2-trifluoroethyl)amino]-1-piperidyl]thiazol-5-yl]pyrazolo[1,5-a]pyrimidine-3-carboxamide] | 2.72 | 2.17 | 29.1 | >100 | 326 | – | – | – |
| CN(C)CCOC(=O)C1CCN(C(=O)Cn2cc(NC(=O)c3cnn4cccnc34)c(-c3cc(Cl)ccc3OC(F)F)n2)CC1 [Example 338, 2-(dimethylamino)ethyl 1-(2-[3-[5-chloro-2-(difluoromethoxy)phenyl]-4-[pyrazolo[1,5-a]pyrimidine-3-amido]-1H-pyrazol-1-yl]acetyl)piperidine-4-carboxylate] | 0.36 | 1.16 | – | >100 | > 200 | – | – | 0.0177 |
| O=C(Nc1cn(CC(=O)N2CCC(CN3CCOCC3)CC2)nc1-c1cc(Cl)ccc1OC(F)F)c1cnn2cccnc12 [Example 348, N-[3-[5-chloro-2-(difluoromethoxy)phenyl]-1-[2-[4-(morpholin-4-ylmethyl)piperidin-1-yl]-2-oxoethyl]-1H-pyrazol-4-yl]pyrazolo[1,5-a]pyrimidine-3-carboxamide] | 0.4 | 1.02 | – | >100 | 143 | – | – | 0.012 |
| CCOC(=O)CN1CCN(C(=O)Cn2cc(NC(=O)c3cnn4cccnc34)c(-c3cc(Cl)ccc3OC(F)F)n2)CC1 [Example 397, ethyl 2-[4-(2-[3-[5-chloro-2-(difluoromethoxy)phenyl]-4-[pyrazolo[1,5-a]pyrimidine-3-amido]-1H-pyrazol-1-yl]acetyl)piperazin-1-yl]acetate] | – | 0.77 | – | >100 | 141 | – | – | 0.027 |
| CC(C)(C#N)CNC1CCN(C(=O)Cn2cc(NC(=O)c3cnn4cccnc34)c(-c3cc(Cl)ccc3OC(F)F)n2)CC1 [Example 466, N-(3-(5-chloro-2-(difluoromethoxy)phenyl)-1-(2-(4-(2-cyano-2-methyl-propylamino)piperidin-1-yl)-2-oxoethyl)-1H-pyrazol-4-yl)pyrazolo[1,5-a]pyrimidine-3-carboxamide] | 0.27 | 0.74 | – | 80 | 72 | – | – | 0.014 |
| N#CC1(CNC2CCN(C(=O)Cn3cc(NC(=O)c4cnn5cccnc45)c(-c4cc(Cl)ccc4OC(F)F)n3)CC2)CC1 [Example 468, N-(3-(5-chloro-2-(difluoromethoxy)phenyl)-1-(2-(4-(((1-cyanocyclopropyl)methyl)amino)piperidin-1-yl)-2-oxoethyl)-1H-pyrazol-4-yl)pyrazolo[1,5-a]pyrimidine-3-carboxamide] | 0.36 | 0.92 | – | >100 | 140 | – | – | 0.006 |
